Laboratory results from patent US8609590B2, “Synergistic combination of flumetsulam with thiabendazole” (Dow Global Technologies LLC, priority 2010, dated 2013).

What was measured:
Format in all cases: cell-based
[1] = tested on: Gloeocapsa sp. and Oscillatoria sp. (Gs + Os); assay: Algal efficacy testing, modified ASTM 5589, paint film; conditions: for % inhibition: at the total conc given for the same sample; for Total conc: end-point concentration in paint used for SI
Description: (§1) Sample preparation: A single or blend of biocides was post added into white acrylic latex paint free of biocides to give a maximum total active ingredient/s concentration tested. This paint was then diluted with a biocide free acrylic latex paint to give targeted concentrations for the testing. Depending on the type of biocide blends tested, the total biocides concentrations varies from 200 to 5000 ppm. After biocides addition or dilution, each sample was hand mixed for at least a minute until uniformity is achieved. Each of the paint samples as well as a control sample (containing no biocide) were used to prepare films on black plastic-vinyl chloride/acetate copolymer panels (LENETA, Mahwah, N.J.) using a 3 mil (0.0762 mm) bird bar applicator. The panels were thoroughly dried for at least 2 days avoiding direct exposure to sunlight. Square discs (0.5 inch; 1.27 cm^2) were cut out from each panel and were used as the substrate for fungal and algal efficacy tests. This sample size allowed for an agar border when the sample disc was placed into the well of the test plate. Each sample was tested in duplicate
(§2) The appropriate media (BOLD'S 3N for Chlorophytes, BG-11 for Cyanobacteria, and PDA for fungi) were used to support microbial growth. The test plates were maintained at room temp (25° C.-26° C.), in a cycled light-dark environment, for four weeks for algae. Plates for fungal challenge tests were maintained at 30 C for four weeks. At the end of the incubation period the samples were scored for percent area covered by visible microbial growth.
(§3) ASTM 5589 is a standard accelerated test method for determining resistance of various coatings (including paints) to algal defacement. To accommodate for high-throughput screening, this method was scaled down from petri plates to 6-well plates. A single coupon was placed with a pair of sterile forceps at the center of the agar plug (on top) with the painted surface facing upwards. Algal inoculums were prepared by mixing equal concentrations (1×10^6 cfu/ml) and equal volumes (depending on number of samples to be inoculated) of like growing organisms.
(§4) In Flumetsulam+various IT synergy study, three pool of mixed algae were prepared as the test inoculum, Gloeocapsa sp. and Oscillatoria sp. a mix of cyanobacteria grown on BG-11 media; Chlorella sp., Chlorella kessleri, and Nostoc commune are unicellular chlorphytes that were mixed and grown on Bold media; Trentepohlia aurea, Tretepohlia odorata, and Calotrix parientina are filamentous algae that were mixed and grown on Bold media.
(§5) In Diclosulam+various IT synergy study, only two pools of mixed algae were prepared; Gloeocapsa sp. and Oscillatoria sp. grown on BG-11 media and Chlorella sp., Chlorella kessleri, Nostoc commune, Trentepohlia aurea, Tretepohlia odorata, and Calotrix parientina grown on Bold media
(§6) Each well that contains a tested coupon was inoculated with 400 μl of organism mixture (1×10^6 cfu/ml) making sure that the whole surface (paint film as well as the agar surrounding it) was evenly covered. The plates were incubated at room temp (25° C.-26° C.) with cyclic exposure to light (OTT-Lite model # OTL4012P, 40 Watt, 26 KLumen) and dark phases, for a period of four weeks. The total area covered was evaluated at the end of each week according to percent area covered in 5% increments.
(§7) The SI is calculated based on F. C. Kull et.

[2] = tested on: Aspergillus niger mixed with Penicillium funiculosum (AnPf); assay: Fungal efficacy testing, modified ASTM 5590, paint film (Flumetsulam study); conditions: for % inhibition: at the total conc given for the same sample; for Total conc: end-point concentration in paint used for SI, four weeks, 30 C
Description: as §1, §2
(§8) ASTM 5590 is a standard accelerated test method for determining resistance of various coatings (including paints) to fungal defacement. To accommodate for high-throughput screening, this method was scaled down from petri plates to 6-well plates. To set up the test, an agar plug was placed at the bottom of each well of the sterile 6-well plate. A single coupon was placed with a pair of sterile forceps at the center of the agar plug (on top) with the painted surface facing upwards. Fungal inoculums were prepared by mixing equal concentrations (1×10^6 cfu/ml) and equal volumes (depending on number of samples to be tested) of like growing organisms. For Flumetsulam+various IT synergy study, three pools of mixed fungi were prepared as the test inoculum. Cladosporium herbarum was mixed with Aureobasidium pullulans; Aspergillus niger was mixed with Penicillium funiculosum and Alternaria alternata was mixed with Trichoderma viride. For Diclosulam+various IT synergy study, all above fungi were mixed as a single pool. Each well was inoculated with 400 μl of organism mixture (1×10^6 cfu/ml) making sure that the whole surface (paint film as well as the agar surrounding it) was evenly covered. The plates were incubated at 30° C. in presence of moisture, for a period of four weeks. The total percent area covered was evaluated and recorded at the end of each week after the 2nd week and recorded in increments of 5%.
as §7

[3] = tested on: Alternaria alternata mixed with Trichoderma viride (AaTv); assay: as above; conditions: for % inhibition: at the total conc given for the same sample; for Total conc: end-point concentration in paint used for SI, four weeks, 30 C
Description: as §1, §2, §8, §7

[4] = tested on: Cladosporium herbarum mixed with Aureobasidium pullulans (ApCh); assay: as above; conditions: for % inhibition: at the total conc given for the same sample; for Total conc: end-point concentration in paint used for SI, four weeks, 30 C
Description: as §1, §2, §8, §7

[5] = tested on: Trentepohlia aurea, Tretepohlia odorata, and Calotrix parientina (Cp + To + Ta); assay: Algal efficacy testing, modified ASTM 5589, paint film (Flumetsulam study); conditions: for % inhibition: at the total conc given for the same sample; for Total conc: end-point concentration in paint used for SI, four weeks
Description: as §1, §2, §3, §4, §6, §7

[6] = tested on: Chlorella sp., Chlorella kessleri, and Nostoc commune (Cs + Ck + Nc); assay: as above; conditions: for % inhibition: at the total conc given for the same sample; for Total conc: end-point concentration in paint used for SI, four weeks
Description: as §1, §2, §3, §4, §6, §7

[7] = tested on: Cp + To + Ta + Cs + Ck + Nc; assay: Algal efficacy testing, modified ASTM 5589, paint film (Diclosulam study); conditions: for % inhibition: at the total conc given for the same sample; for Total conc: end-point concentration in paint used for SI
Description: as §1, §2, §3, §5
Each well that contains a tested coupon was inoculated with 400 μl of organism mixture (1×10^6 cfu/ml) making sure that the whole surface (paint film as well as the agar surrounding it) was evenly covered. […] The total area covered was evaluated at the end of each week according to percent area covered in 5% increments.
(§9) The SI is calculated based on F. C. […]

[8] = tested on: Aa + Tv + An + Pf + Ap + Ch; assay: Fungal efficacy testing, modified ASTM 5590, paint film (Diclosulam study, single fungal pool); conditions: for % inhibition: at the total conc given for the same sample; for Total conc: end-point concentration in paint used for SI
Description: as §1, §2
as §8, with “Each well was inoculated with 400 μl of organism mixture (1×10^6 cfu/ml) making sure that the whole surface (paint film as well as the agar surrounding it) was evenly covered. The plates were incubated at 30° C. in presence of moisture, for a period of four weeks.” left out
as §9

Row | Compound | % inhibition ([1]; Flumetsulam study) | Total conc ([1]; Flumetsulam study, four weeks) | % inhibition [2] | Total conc [2] | % inhibition [3] | Total conc [3] | % inhibition [4] | Total conc [4] | % inhibition [5] | Total conc [5] | % inhibition [6] | Total conc [6] | % inhibition ([1]; Diclosulam study) | Total conc ([1]; Diclosulam study) | % inhibition [7] | Total conc [7] | % inhibition [8] | Total conc [8]
1 | Cc1ccn2nc(S(=O)(=O)Nc3c(F)cccc3F)nc2n1 [Flumetsulam, N-(2,6-difluorophenyl)-5-methyl[1,2,4]triazolo[1,5-a]pyrimidine-2-sulfonamide] | 90% | 2625 ppm | 90% | 1750 ppm | 0% | 3500 ppm | 50% | 3500 ppm | 75% | 1750 ppm | 100% | 2625 ppm |  |  |  |  |  | 
2 | CCOc1nc(F)cc2nc(S(=O)(=O)Nc3c(Cl)cccc3Cl)nn12 [Diclosulam, N-(2,6-dichlorophenyl)-5-ethoxy-7-fluoro[1,2,4]triazolo[1,5-c]pyrimidine-2-sulfonamide] |  |  |  |  |  |  |  |  |  |  |  |  | 90% | 875 ppm | 100% | 1750 ppm | 0% | 3500 ppm
3 | c1ccc2[nH]c(-c3cscn3)nc2c1 [TBZ, thiabendazole] | 85% | 3750 ppm | 100% | 625 ppm | 100% | 625 ppm | 100% | 625 ppm | 90% | 3750 ppm | 100% | 2500 ppm | 85% | 1250 ppm | 100% | 1250 ppm | 60% | 625 ppm
